Measured values taken from US20220372040A1, “METTL3 MODULATORS” (Accent Therapeutics, Inc., priority 2020, published 2022).
Where two headings read alike, the source gives them in different places.

What was measured:
[1] = molecular target: METTL3/METTL14 (Homo sapiens, UniProt Q86U44); test: METTL3-14 standard enzyme assay (3H-SAM flashplate scintillation); format: biochemical; settings: METTL3/METTL14 2.5 nM, RNA 100 nM, 3H-SAM 100 nM, 30 min
Outline: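 METTL3/METTL14 (2.5 nM final) preincubated 5 min with compound in 20 mM HEPES pH 7.5, 50 mM KCl, 250 μM MgCl2, 1 mM DTT, ambient temperature; started with 100 nM 3′-biotinylated RNA (UCUGGACUAAA) and 100 nM 3H-SAM. After 30 min, quenched with 15 μM cold SAM; methylated RNA captured on streptavidin flashplates and counted by scintillation.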

[2] = molecular target: PRMT5-MEP50 (Homo sapiens, UniProt O14744); test: PRMT5 assay (3H-SAM flashplate scintillation); format: biochemical; settings: PRMT5-MEP50 2.5 nM, histone H4 peptide 100 nM, 3H-SAM 250 nM, 60 min
Outline: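 PRMT5-MEP50 (2.5 nM final) preincubated 5 min with compound, then reacted 60 min at ambient temperature with 100 nM biotinylated N-acetyl histone H4 peptide and 250 nM 3H-SAM in 20 mM Tris-HCl pH 8.0, 1 mM DTT, 0.01% Tween. Quenched with 15 μM cold SAM; methylated peptide captured on streptavidin flashplates, scintillation counted.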

[3] = molecular target: METTL1/WDR4 (Homo sapiens, UniProt Q9UBP6); test: METTL1 assay (3H-SAM flashplate scintillation); format: biochemical
Outline: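 Radiometric methyltransfer by METTL1/WDR4 (6.25 nM f.c., 5 min preincubation) at ambient temperature in HEPES pH 7.5, KCl, MgCl2, DTT; started with 25 nM 3′-biotinylated RNA and 60 nM 3H-SAM, run 20 min, quenched with 15 μM cold SAM. Product captured on streptavidin flashplates (2 h, 25° C), counted by scintillation.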

[4] = test system: m^6 A in cellular mRNA of MOLM-13 cells; test: m^6 A-mRNA LC-MS/MS assay (m^6 A cellular assay); format: cell-based; settings: Homo sapiens, 24 hours incubation, LC-MS/MS of m^6 A/A in mRNA
Experimental: m^6 A-mRNA LC-MS/MS Assay
5×10^6 MOLM-13 (DSMZ) cells were seeded into 10 cm dishes in RPMI 1640 media containing 10% fetal bovine serum and placed in a humidified tissue culture incubator at 37° C. overnight. Compounds were resuspended in 100% DMSO and dosed into each dish at a fixed concentration to comprise an 8-point dose response with a 4-fold serial dilution ranging from 25 μM to 1.5 nM in 0.25% DMSO final and allowed to incubate for 24 hours in a humidified tissue culture incubator at 37° C. Cells were harvested by centrifugation followed by mRNA extraction using DTRECT Dynabeads mRNA DTRECT kit (Life Technologies). mRNA was quantified on NanoDrop spectrophotometer (Thermo Fisher Scientific) and digested into single nucleosides using Nucleoside Digestion Mix (New England Biolabs). Nucleosides are quantified with retention time on a BEH […] column (Waters) and the nucleoside-to-base ion mass transition of 282.1-150.1 (m^6 A) and 268-136 (A) on an API 6500+ triple quadrupole mass spectrometer. Quantification is performed in comparison with the standard curve, obtained from pure nucleoside standards (Selleck Chemicals) running with the same batch of samples. Percentage m^6 A in cellular mRNA is calculated as 100*(m^6 A/A).

[5] = test system: MOLM-13 cells; test: MOLM-13 96 Hour cell proliferation assay (Cell Titer-Glo); format: cell-based; settings: Homo sapiens
Experimental: MOLM-13 96 Hour Cell Proliferation Assay
MOLM-13 (DSMZ) cells were seeded at 600 cells per well in a volume of 44 μL in a Greiner Bio-One CELLSTAR™ 384 Well Polystyrene Cell Culture clear bottom microplate in RPMI 1640 media containing 10% fetal bovine serum using a Multidrop Combi (ThermoFisher Scientific). Cells were incubated overnight at 37° C. in a humidified tissue culture incubator. To prevent evaporation or to reduce edge effect, add 50 μL or more H2O to an empty plate, cover, and place on top of the cell plates. The Mosquito® HTS Liquid Handler was used to make a compound/media intermediate plate by aliquoting 1 μL of compound from the initial compound dilution plate (concentrations ranging from 10.0 mM to 38.0 nM in 100% DMSO) into Bio-One 384-well polypropylene conical bottom microplate containing 49 μL of media containing the appropriate serum (50-fold dilution, 2% DMSO, compound concentrations ranging from 200.0 μM and […]). The Apricot liquid handling system was used to transfer 6.2 μL compounds from the intermediate plate into the seeding plate containing 44 μL cells (8-fold dilution spanning concentrations 25.0 μM to […], 0.25% DMSO final), and placed in a humidified tissue culture incubator at 37° C. After 96 hours, 25 μL of Cell Titer-Glo reagent (Promega) was added to each well using an Integra liquid handling system. The plate was protected from light using TopSeal-A (Black) film over the entire plate, added White Bottom seal film on the bottom of the entire plate for a better reading on the Envision, and placed on an IKA plate shaker for at 300 rpm for 10 minutes at room temperature. The plate was read on an EnVision plate reader (Perkin Elmer) using the Ultra Sensitive Luminescence protocol. Data analysis was performed by normalizing the raw luminescence units to an average of the positive control values for staurosporine (100% cell death) and the negative control values for DMSO (0% cell death). An IC50 was calculated using a 4-parameter logistic nonlinear regression model in GraphPad Prism.

[6] = test system: MOLM-13 cells; test: MOLM-13 48 Hour cell proliferation assay (Cell Titer-Glo); format: cell-based; settings: Homo sapiens
Experimental: MOLM-13 48 Hour Cell Proliferation Assay
MOLM-13 (DSMZ) cells were seeded at 1000 cells per well in a volume of 44 μL in a Falcon 384-well tissue culture treated clear bottom microplate in RPMI 1640 media containing 10% fetal bovine serum using a Multidrop Combi (ThermoFisher Scientific). Cells were incubated overnight at 37° C. in a humidified tissue culture incubator. The Mosquito® HTS Liquid Handler was used to make a compound/media intermediate plate by aliquoting […] of compound from the initial compound dilution plate (concentrations ranging from 10.0 mM to 38.0 nM in 100% DMSO) into a V bottom 384-well screen matrix plate containing 49 µL of media containing the appropriate serum (50-fold dilution, 2% DMSO). The Apricot liquid handling system was used to transfer […] compounds from the intermediate plate into the Falcon 384-well tissue culture plate containing 44 μL cells (10-point, 4-fold dilution spanning concentrations 25.0 μM to […], 0.25% DMSO final), and placed in a humidified tissue culture incubator at 37° C. After 48 hours, 25 μL of Cell Titer-Glo reagent (Promega) was added to each well using a Multidrop Combi. The plate was protected from light and placed on an IKA plate shaker for at 300 rpm for 10 minutes at room temperature. The plate was read on an EnVision plate reader (Perkin Elmer) using the Ultra Sensitive Luminescence protocol. Data analysis was performed by normalizing the raw luminescence units to an average of the positive control values for staurosporine (100% cell death) and the negative control values for DMSO (0% cell death). An IC50 was calculated using a 4-parameter logistic nonlinear regression model in GraphPad Prism.

[7] = molecular target: T1, METTL16 (Homo sapiens, UniProt Q86W50); test: METTL16 assay (3H-SAM flashplate scintillation); format: biochemical; settings: METTL16 100 nM, RNA 50 nM, 3H-SAM 200 nM, SAM 800 nM, 20 min
T1 sequence (Q86W50 1-562): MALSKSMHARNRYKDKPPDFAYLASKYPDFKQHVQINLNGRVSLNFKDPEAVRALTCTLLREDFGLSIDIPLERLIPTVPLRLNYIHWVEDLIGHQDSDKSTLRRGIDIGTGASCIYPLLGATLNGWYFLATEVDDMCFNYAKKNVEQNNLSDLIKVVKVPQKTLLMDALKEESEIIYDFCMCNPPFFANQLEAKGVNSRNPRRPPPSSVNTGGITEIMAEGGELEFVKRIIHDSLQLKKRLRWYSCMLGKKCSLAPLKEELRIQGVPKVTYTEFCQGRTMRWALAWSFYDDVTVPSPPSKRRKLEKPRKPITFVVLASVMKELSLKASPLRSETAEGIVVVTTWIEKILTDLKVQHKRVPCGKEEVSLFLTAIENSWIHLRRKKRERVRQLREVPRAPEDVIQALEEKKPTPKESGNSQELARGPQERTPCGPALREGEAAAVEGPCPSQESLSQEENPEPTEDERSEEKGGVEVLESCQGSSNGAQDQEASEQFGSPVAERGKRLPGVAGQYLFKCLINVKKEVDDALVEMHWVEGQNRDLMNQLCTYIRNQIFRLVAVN
Outline: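 Radiometric methyltransferase reaction at ambient temperature in 20 mM HEPES pH 7.5, 50 mM KCl, 1 mM DTT, with 100 nM enzyme preincubated 5 min with compound. It was started with 50 nM 3′-biotinylated RNA, 200 nM 3H-SAM plus 800 nM cold SAM, run 20 min, then quenched with excess cold SAM. Product was captured on streptavidin flashplates and scintillation-counted.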

[8] = METTL1/WDR4 6.25 nM, RNA 25 nM, 3H-SAM 60 nM, 20 min, read-out: METTL1 IC50

Sequence of METTL3/METTL14 (Q86U44 whole entry, species assumed): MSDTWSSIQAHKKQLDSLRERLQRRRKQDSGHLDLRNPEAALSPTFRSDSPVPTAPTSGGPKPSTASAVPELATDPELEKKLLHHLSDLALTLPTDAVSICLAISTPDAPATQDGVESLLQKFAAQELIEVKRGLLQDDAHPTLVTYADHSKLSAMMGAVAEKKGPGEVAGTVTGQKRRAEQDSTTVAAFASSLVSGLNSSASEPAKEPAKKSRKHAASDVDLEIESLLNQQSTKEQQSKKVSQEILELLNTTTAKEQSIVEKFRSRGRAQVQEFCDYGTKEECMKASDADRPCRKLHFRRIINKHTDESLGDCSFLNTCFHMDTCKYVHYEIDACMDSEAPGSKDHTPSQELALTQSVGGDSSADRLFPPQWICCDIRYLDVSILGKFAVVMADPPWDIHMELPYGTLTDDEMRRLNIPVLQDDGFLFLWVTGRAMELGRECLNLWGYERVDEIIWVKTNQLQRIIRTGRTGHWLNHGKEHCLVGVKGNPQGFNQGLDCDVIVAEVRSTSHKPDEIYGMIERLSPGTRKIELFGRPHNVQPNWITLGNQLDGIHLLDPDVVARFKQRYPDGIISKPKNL
Sequence of METTL3/METTL14 (Q9HCE5 whole entry partner, species assumed): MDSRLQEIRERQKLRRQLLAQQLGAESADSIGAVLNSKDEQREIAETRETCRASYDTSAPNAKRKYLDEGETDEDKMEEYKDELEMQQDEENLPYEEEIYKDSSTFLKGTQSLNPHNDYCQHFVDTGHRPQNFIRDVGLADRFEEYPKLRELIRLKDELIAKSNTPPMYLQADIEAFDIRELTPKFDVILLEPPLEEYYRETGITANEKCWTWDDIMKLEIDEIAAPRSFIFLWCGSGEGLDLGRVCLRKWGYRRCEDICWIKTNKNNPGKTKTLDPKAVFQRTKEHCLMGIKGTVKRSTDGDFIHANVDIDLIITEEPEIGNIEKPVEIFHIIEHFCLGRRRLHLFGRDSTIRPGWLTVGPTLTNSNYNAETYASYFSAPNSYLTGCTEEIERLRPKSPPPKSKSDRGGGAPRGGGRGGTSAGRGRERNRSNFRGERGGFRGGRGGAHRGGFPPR
Sequence of METTL1/WDR4 (Q9UBP6 whole entry, species assumed): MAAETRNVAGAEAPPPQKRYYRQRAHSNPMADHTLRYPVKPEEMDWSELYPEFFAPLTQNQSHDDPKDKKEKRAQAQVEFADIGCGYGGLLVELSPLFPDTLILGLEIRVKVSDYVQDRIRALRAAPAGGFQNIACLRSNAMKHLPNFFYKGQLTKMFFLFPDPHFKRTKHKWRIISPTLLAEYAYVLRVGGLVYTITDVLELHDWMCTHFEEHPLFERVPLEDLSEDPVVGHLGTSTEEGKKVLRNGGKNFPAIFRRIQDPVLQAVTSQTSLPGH
Sequence of METTL1/WDR4 (P57081 whole entry partner, species assumed): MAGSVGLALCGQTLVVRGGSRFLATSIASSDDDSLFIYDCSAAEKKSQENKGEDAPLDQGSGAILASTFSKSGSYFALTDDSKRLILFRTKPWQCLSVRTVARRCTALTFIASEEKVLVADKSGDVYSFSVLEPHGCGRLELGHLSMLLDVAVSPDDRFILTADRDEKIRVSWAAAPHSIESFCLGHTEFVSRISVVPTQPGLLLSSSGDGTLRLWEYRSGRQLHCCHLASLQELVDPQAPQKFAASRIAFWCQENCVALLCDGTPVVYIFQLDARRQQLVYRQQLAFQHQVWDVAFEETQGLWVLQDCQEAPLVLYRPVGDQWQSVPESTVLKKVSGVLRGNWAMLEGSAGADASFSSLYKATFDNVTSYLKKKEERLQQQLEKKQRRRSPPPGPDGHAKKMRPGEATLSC
Sequence of PRMT5-MEP50 (O14744 whole entry): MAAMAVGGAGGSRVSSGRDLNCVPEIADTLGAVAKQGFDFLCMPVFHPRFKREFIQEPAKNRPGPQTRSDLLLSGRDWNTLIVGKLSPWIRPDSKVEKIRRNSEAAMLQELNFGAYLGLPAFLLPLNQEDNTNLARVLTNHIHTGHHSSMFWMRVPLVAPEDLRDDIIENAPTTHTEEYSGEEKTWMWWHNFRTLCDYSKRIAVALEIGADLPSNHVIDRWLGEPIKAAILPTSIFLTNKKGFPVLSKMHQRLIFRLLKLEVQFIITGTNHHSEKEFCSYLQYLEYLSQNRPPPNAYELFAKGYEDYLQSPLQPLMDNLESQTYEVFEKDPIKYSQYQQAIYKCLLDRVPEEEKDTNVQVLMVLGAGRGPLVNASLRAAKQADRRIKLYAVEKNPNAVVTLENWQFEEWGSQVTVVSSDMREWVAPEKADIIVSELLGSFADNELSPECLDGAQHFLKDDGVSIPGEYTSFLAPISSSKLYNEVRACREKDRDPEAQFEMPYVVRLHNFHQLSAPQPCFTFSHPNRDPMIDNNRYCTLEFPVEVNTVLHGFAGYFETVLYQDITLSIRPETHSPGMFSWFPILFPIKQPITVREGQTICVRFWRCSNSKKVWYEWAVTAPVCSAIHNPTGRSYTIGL
Sequence of PRMT5-MEP50 (Q9BQA1 whole entry partner): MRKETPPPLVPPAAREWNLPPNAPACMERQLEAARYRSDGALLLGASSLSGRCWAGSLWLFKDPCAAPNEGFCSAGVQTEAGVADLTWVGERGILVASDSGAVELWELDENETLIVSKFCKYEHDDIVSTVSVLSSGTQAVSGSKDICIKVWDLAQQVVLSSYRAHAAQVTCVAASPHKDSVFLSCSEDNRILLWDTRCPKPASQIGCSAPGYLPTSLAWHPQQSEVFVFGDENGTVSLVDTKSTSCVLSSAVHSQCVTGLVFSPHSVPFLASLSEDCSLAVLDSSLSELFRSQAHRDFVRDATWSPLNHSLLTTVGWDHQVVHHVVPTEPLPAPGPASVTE

Row | Compound | IC50 [1] | IC50 [2] | IC50 [3, 8] | IC50 [4] | IC50 [5] | IC50 [6] | IC50 [3] | IC50 [7]
1 | CC(C)c1cc(N2CCNCC2)c2ccc(OCc3cncc(-n4ccc5c(N)ncnc54)c3)cc2n1 [Compound I-95] | < 10 nM | > 1000 nM | > 1000 nM | 1000 to 10000 nM | < 1000 nM | – | – | –
2 | CCc1cc(N)c2ccc(OCc3cncc(-n4cc(C5CCCC5)c5c(N)ncnc54)c3)cc2n1 [Compound I-11] | < 10 nM | > 1000 nM | > 1000 nM | 1000 to 10000 nM | – | < 1000 nM | – | –
3 | CNc1ccc2ccc(CCc3cncc(-n4cc(-c5ccn(C)n5)c5c(N)ncnc54)c3)cc2n1 [Compound I-1, 7-(2-(5-(4-amino-5-(1-methyl-1H-pyrazol-3-yl)-7H-pyrrolo[2,3-d]pyrimidin-7-yl)pyridin-3-yl)ethyl)-N-methylquinolin-2-amine] | < 10 nM | > 1000 nM | – | < 1000 nM | – | < 1000 nM | > 1000 nM | –
4 | Cn1ccc(-c2cn(-c3cncc(CCc4ccc5ccc(N6CCC6)nc5c4)c3)c3ncnc(N)c23)n1 [Compound I-104] | < 10 nM | > 1000 nM | – | < 1000 nM | < 1000 nM | – | – | –
5 | CNc1ccc2ccc(OCc3cc(CO)cc(-c4c[nH]c5c(N)ncnc45)c3)cc2n1 [Compound I-10] | < 10 nM | > 1000 nM | > 1000 nM | ≥ 10000 nM | – | ≥ 10000 nM | – | –
6 | CCc1cc(N2CCOCC2)c2ccc(OCc3cncc(-n4ccc5c(N)ncnc54)c3)cc2n1 [Compound I-108] | < 10 nM | > 1000 nM | – | 1000 to 10000 nM | 1000 to 10000 nM | – | – | –
7 | CCc1cc(NCCOC)c2ccc(OCc3cncc(-c4c[nH]c5c(N)ncnc45)c3)cc2n1 [Compound I-7] | < 10 nM | > 1000 nM | > 1000 nM | – | – | ≥ 10000 nM | – | –
8 | CN(C)CCNc1cc(C2CCC2)nc2cc(OCc3cncc(-n4ccc5c(N)ncnc54)c3)ccc12 [Compound I-92] | < 10 nM | > 1000 nM | > 1000 nM | 1000 to 10000 nM | < 1000 nM | – | – | –
9 | CNc1cc(CCCN2CCOCC2)c2ccc(OCc3cncc(-n4ccc5c(N)ncnc54)c3)cc2n1 [Compound I-233] | < 10 nM | > 1000 nM | – | ≥ 10000 nM | 1000 to 10000 nM | – | – | –
10 | CC(C)c1cc(N)c2ccc(OCc3cncc(-n4ccc5c(N)ncnc54)c3)cc2n1 [Compound I-12] | < 10 nM | > 1000 nM | > 1000 nM | – | 1000 to 10000 nM | 1000 to 10000 nM | – | –
11 | CCNc1ccc2ccc(CCc3cncc(-n4cc(-c5ccn(C)n5)c5c(N)ncnc54)c3)cc2n1 [Compound I-106] | < 10 nM | > 1000 nM | – | < 1000 nM | < 1000 nM | – | – | –
12 | CNc1ccc2ccc(OCc3cncc(-n4cc(C)c5c(N)ncnc54)c3)cc2n1 [Compound I-17] | < 10 nM | > 1000 nM | > 1000 nM | ≥ 10000 nM | – | < 1000 nM | – | –
13 | CNc1ccc2ccc(OCc3cncc(-n4ccc5c(N)ncnc54)n3)cc2n1 [Compound I-14] | < 10 nM | > 1000 nM | > 1000 nM | 1000 to 10000 nM | – | 1000 to 10000 nM | – | –
14 | CNc1ccc2ccc(OCc3cc(CO)cc(-n4ccc5c(N)ncnc54)c3)cc2n1 [Compound I-6] | < 10 nM | > 1000 nM | > 1000 nM | – | 1000 to 10000 nM | ≥ 10000 nM | – | –
15 | CNc1ccc2ccc(OCc3cncc(-c4cn(C5CCCC5)c5c(N)ncnc45)c3)cc2n1 [Compound I-18] | < 10 nM | > 1000 nM | > 1000 nM | 1000 to 10000 nM | – | 1000 to 10000 nM | – | –
16 | Cc1cc(NCCN(C)C)c2ccc(OCc3cncc(-n4cc(Cl)c5c(N)ncnc54)c3)cc2n1 [Compound I-42] | 10 to 100 nM | > 1000 nM | – | – | – | < 1000 nM | – | > 1000 nM
17 | CCc1cc(NCCN(C)C)c2ccc(OCc3cncc(-n4ccc5c(N)ncnc54)c3)cc2n1 [Compound I-15] | < 10 nM | > 1000 nM | > 1000 nM | – | – | 1000 to 10000 nM | – | –
